Reference: paper PMC9995905, “Characteristics of antimicrobial peptide OaBac5mini and its bactericidal mechanism against Escherichia coli” (Frontiers in Veterinary Science, 2023)
Entries after “also recorded” stand apart in the source; their conditions may differ. Where no end group is shown, it is not given here.

What was measured:
[1] = tested on: E. coli ATCC 25922; test: Permeability of the outer membrane (NPN uptake); format: cell-based, Escherichia coli; conditions: 25, 50, 100 and 200 μg/ml; 10 μM NPN; 60 min; P < 0.01; n = 3
Method: The NPN uptake assay was conducted following the instructions of […] and […] ([25]) with minor modifications. In brief, E. coli. […] Fluorescence units were monitored immediately using INFINITE 200 PRO (Infinite® 2000, TECAN, Austria) at the excitation wavelength of 350 nm and emission wavelength of 420 nm for 100 min at 5 min intervals. Experiments were performed in biological triplicate.

[2] = tested on: trypsin; test: Digestive enzyme sensitivity (inhibition zone assay); conditions: 37°C, 3 h, 50 μg/ml peptide, inhibition zone assay against E. coli ATCC 25922, repeated three times
Method: (§1) The sensitivities of OaBac5mini to different pH, temperature, digestive enzymes, and repeated freeze-thawing conditions were determined using the inhibition zone assay as previously described ([23]). For pH sensitivity, OaBac5mini was diluted with each solution whose pH was individually adjusted to 2, 3, 4, 5, 6, 7, 8, 9, 10, 11 with HCl or NaOH, and incubated for 2 h, followed by adjusting the pH to 7 to end the reaction. For temperature sensitivity, the diluted peptide was incubated at 30, 40, 50, 60, 70, 80, 90, and 100°C for 30 min. To determine the digestive enzymes sensitivity, OaBac5mini was incubated with 100 μg/ml pepsin (in pH 2 sterile water, sigma, USA), 5–100 μg/ml trypsin (in pH 6.8 KH2PO4 buffer, sigma, USA) and 100 μg/ml protease K (Solarbio, China) at 37°C for 3 h, respectively. To end the reaction after incubation, the pepsin buffer was adjusted to pH 8, the trypsin solution and protease K solution were incubated at 95°C for 10 min. For repeated freeze-thawing sensitivity, OaBac5mini was frozen and then thawed at room temperature 0–12 times. All the final concentrations of OaBac5mini in sensitivity tests were 50 μg/ml. All experiments were repeated three times.

[3] = tested on: E. coli ATCC 25922; test: Integrity of the inner membrane (DiSC3(5)); format: cell-based, Escherichia coli; conditions: 25, 50, 100 and 200 μg/ml; 1 μM DiSC3(5); within 30 min; P < 0.05; n = 3
Method: If the membrane is depolarized or disrupted, DiSC3(5) is released into the aqueous medium and leads to increased fluorescence. The DiSC3(5) assay was conducted following the instruction of Sautrey et al. ([26]) with minor modifications. […] Fluorescence units were investigated immediately using INFINITE 200 PRO (Infinite® 2000, TECAN, Austria) at the excitation wavelength of 620 nm and emission wavelength of 670 nm for 30 min at 1 min intervals. Triple experiments were conducted with three individual clones of E. coli ATCC 25922.

[4] = biological target: T1, proteinase K (Parengyodontium album, UniProt P06873); test: Digestive enzyme sensitivity (inhibition zone assay); format: in vitro ADME; conditions: 100 μg/ml protease K, 37°C, 3 h; 50 μg/ml peptide; inhibition zone assay against E. coli ATCC 25922; repeated three times
T1 construct: purchased Solarbio, China
T1 sequence (P06873 106-384): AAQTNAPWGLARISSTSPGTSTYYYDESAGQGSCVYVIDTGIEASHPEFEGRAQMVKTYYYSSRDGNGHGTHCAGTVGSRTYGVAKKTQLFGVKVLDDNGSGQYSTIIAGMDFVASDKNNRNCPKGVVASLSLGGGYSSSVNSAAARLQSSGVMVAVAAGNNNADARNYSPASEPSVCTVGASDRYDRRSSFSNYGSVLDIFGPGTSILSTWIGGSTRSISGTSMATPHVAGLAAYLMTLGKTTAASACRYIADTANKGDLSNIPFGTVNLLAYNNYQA
Description: (§2) All experiments were repeated three times.

[5] = biological target: T2, pepsin (Sus scrofa, UniProt P00791); test: as above; format: in vitro ADME; conditions: 100 μg/ml pepsin in pH 2 sterile water, 37°C, 3 h; 50 μg/ml peptide; inhibition zone assay against E. coli ATCC 25922; repeated three times
T2 construct: purchased sigma, USA
T2 sequence (P00791 60-385): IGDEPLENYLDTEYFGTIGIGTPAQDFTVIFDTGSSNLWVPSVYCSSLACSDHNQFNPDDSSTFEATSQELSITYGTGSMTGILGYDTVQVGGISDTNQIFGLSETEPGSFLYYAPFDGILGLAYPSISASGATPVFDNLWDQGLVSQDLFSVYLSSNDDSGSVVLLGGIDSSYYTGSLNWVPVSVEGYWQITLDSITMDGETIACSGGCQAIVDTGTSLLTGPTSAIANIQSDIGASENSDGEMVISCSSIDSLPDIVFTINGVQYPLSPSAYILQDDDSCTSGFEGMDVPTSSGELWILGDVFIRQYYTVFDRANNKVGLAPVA
Description: as §2

[6] = tested on: E. coli IF4; test: microbe, parasite or virus in culture; conditions: IF4
Description: (§3) The strains of E. coli ATCC 25922 and S. aureus ATCC 25923 were purchased from the American Type Culture Collection (ATCC, Manassas, VA, United States). The strains of E. coli W13, E. coli IF4, E. coli 2, and E. coli 17 were individually isolated from the livers of diseased chickens infected by E. coli. The strains of S. aureus B5, S. aureus B9, S. aureus B54, and S. aureus B63 were individually isolated from the milk of cows with mastitis. These clinical isolates were all identified by the VITEK-32 system (bioMérieux, France) and PCR amplification sequencing.
(§4) MICs of OaBac5mini, amoxicillin, kanamycin, florfenicol and tetracycline were determined using the two-fold broth microdilution method according to the Clinical and Laboratory Standards Institute (CLSI) guidance ([21]). MIC values of the tested antibacterial agents were determined on three independent occasions. Escherichia coli ATCC 25922 was used as the quality control in all the susceptibility tests.

[7] = tested on: S. aureus B63; test: microbe, parasite or virus in culture; conditions: B63
Description: as §3, §4

[8] = tested on: S. aureus B54; test: microbe, parasite or virus in culture; conditions: B54
Description: as §3, §4

[9] = tested on: S. aureus B5; test: microbe, parasite or virus in culture; conditions: B5
Description: as §3, §4

[10] = tested on: E. coli W13; test: microbe, parasite or virus in culture; conditions: W13
Description: as §3, §4

[11] = tested on: E. coli 17; test: microbe, parasite or virus in culture; conditions: 17
Description: as §3, §4

[12] = tested on: S. aureus B9; test: microbe, parasite or virus in culture; conditions: B9
Description: as §3, §4

[13] = tested on: E. coli 2; test: microbe, parasite or virus in culture; conditions: 2
Description: as §3, §4

[14] = tested on: E. coli O157:H7; conditions: cited from earlier work
Method: Salt ions in serum are important factors affecting the antibacterial activity of AMPs in vivo because they can bind to the negatively charged groups of lipopolysaccharide (LPS), a monolayer molecule on the outer membrane of Gram-negative bacteria ([29]). […] But in the presence of physiological concentrations of CaCl2, the MIC of OaBac5mini increased four-fold and attained 100 μg/ml (Table 2). It has been reported that the ...

[15] = tested on: E. coli ATCC 25922; test: Sensitivity to pH, temperature and repeated freeze-thawing (inhibition zone assay); format: physicochemical, Escherichia coli; conditions: 50 μg/ml, inhibition zone assay against E. coli ATCC 25922, repeated three times
Method: as §1

## RFRPPIRRPPIRPPFRPPFRPPVR [OaBac5mini]
[1]
  Average fluorescence intensity of NPN (outer membrane permeability) compared with the negative control: significantly increased
[2]; trypsin 20 to 100 μg/ml in pH 6.8 KH2PO4 buffer
  Antibacterial activity after treatment with trypsin 20 to 100 μg/ml: completely lost activity
[2]; trypsin ≤ 10 μg/ml (< 20 μg/mL) in pH 6.8 KH2PO4 buffer
  Antibacterial activity after treatment with trypsin at low concentrations: stable antibacterial activity; also recorded: no significant effect
[3]
  Average fluorescence intensity of DiSC3(5) (inner membrane integrity): significantly increased
[4]
  Antibacterial activity after treatment with proteinase K: stable antibacterial activity; also recorded: no significant effect
[5]
  Antibacterial activity after treatment with pepsin: stable antibacterial activity; also recorded: not significantly affected
[6]
  MIC against E. coli IF4: 2.60 µg/mL
[7]
  MIC against S. aureus B63: 208.33 µg/mL
[8]
  MIC against S. aureus B54: 250 µg/mL
[9]
  MIC against S. aureus B5: >250 µg/mL
[10]
  MIC against E. coli W13: 3.26 µg/mL
[11]
  MIC against E. coli 17: 3.26 µg/mL
[12]
  MIC against S. aureus B9: 250 µg/mL
[13]
  MIC against E. coli 2: 1.95 µg/mL
[14]
  MIC against E. coli O157:H7 in the presence of 100 mM NaCl: about 30 μg/ml
[15]; 30-100°C for 30 min
  Antibacterial activity after treatment at high temperature: stable antibacterial activity
[15]; frozen and thawed at room temperature 0-12 times
  Antibacterial activity after repeated freeze-thawing: stable antibacterial activity
[15]; pH 2-11 (HCl or NaOH), 2 h, then adjusted to pH 7
  Antibacterial activity after treatment at different pH: stable antibacterial activity; also recorded: not significantly affected
